According to patent publication EP0606463B1, “NEUROMEDIN B RECEPTOR ANTAGONISTS” (The Administrators of The Tulane Educational Fund, priority 1992, dated 1994):
Where two headings read alike, the source gives them in different places. Each block holds one compound with its values, some of them ahead of it. Where a SMILES comes first, the peptide text is derived from it. Bridges are numbered along the chain shown (N, C = ends). [ ]: non-standard residue; d: D form. 2Nal = N[C@@H](Cc1ccc2ccccc2c1)C(=O)O; d2Nal = N[C@H](Cc1ccc2ccccc2c1)C(=O)O

What was measured:
NMB Receptor = target: T1, NMB Receptor (Rattus norvegicus, UniProt P24053); assay: [3H]inositol phosphates (IP) in NMB-R transfected cells; format: cell-based
T1 construct: a full length NMB-preferring bombesin receptor clone generated from rat esophagus; expressed in transfected cells; host or cells: BALB 3T3 cells
T1 sequence (P24053 1-390): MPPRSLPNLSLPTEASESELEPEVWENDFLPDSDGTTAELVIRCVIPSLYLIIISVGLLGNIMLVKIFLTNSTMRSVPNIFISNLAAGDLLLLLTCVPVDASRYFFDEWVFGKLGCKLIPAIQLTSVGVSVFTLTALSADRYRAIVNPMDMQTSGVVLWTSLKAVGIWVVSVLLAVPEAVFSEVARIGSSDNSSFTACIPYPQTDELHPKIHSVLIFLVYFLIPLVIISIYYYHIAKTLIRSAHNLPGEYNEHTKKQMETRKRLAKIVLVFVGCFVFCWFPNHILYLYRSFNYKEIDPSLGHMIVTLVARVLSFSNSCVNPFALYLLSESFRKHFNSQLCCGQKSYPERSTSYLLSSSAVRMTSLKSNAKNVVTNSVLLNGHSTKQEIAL
Protocol: As described previously [Wada, E., et al. Neuron 6:421 (1991)], BALB 3T3 cells expressing a stably transfected rat NMB receptor (NMB-R transfected cells) were obtained using calcium phosphate precipitation of a full length NMB-preferring bombesin receptor clone generated from rat esophagus and subcloned into a modified version of the pCD2 plasmid. Cells were passaged every 3-4 days at confluence, using 0.1% trypsin in 1 mM EDTA. Rat glioblastoma C-6 tumor cells were maintained similarly and were passaged weekly at confluence. Both cell lines were cultured at 37°C in a 5% CO2 atmosphere. Rat AR 42J pancreatic acinar cells were cultured in Dulbecco's modified Eagle's medium (DMEM) without antibiotics and supplemented with 10% (vol/vol) fetal calf serum. The incubation atmosphere consisted of 10% CO2-90% humidified air at 37°C.
(§1) Total phosphoinositides in C-6 cells and in NMB-R transfected cells were determined as described previously, with minor modifications [Benya, R. V. et al. Mol. Pharmacol. 42:1058 (1992); and Wang, L-H. et al. Biochem. J. 286:641 (1992)]. Cells were grown to confluence in 24-well plates and then loaded with 100 µCi/ml myo-[2-^3H]inositol in Dulbecco's modified essential medium with 2% fetal bovine serum at 37°C for 48 hrs. Cells were washed and incubated in phosphoinositide buffer (standard buffer additionally containing 10 mM LiCl, 20 mM HEPES, 2 mM CaCl2, 2% BSA, and 1.2 mM MgSO4) for 15 min and then for 60 min at 37°C with agonists at various concentrations or with 3 nM NMB (a half-maximal effective concentration) and possible antagonists at different concentrations. Reactions were halted using ice-cold 1% HCl in methanol, and the inositol phosphates (IP) were isolated as described previously [Bologna, M. et al. Cancer 63:1714 (1989); and Endo, T. et al. J. Endocrinol. 131:313 (1991)]. Briefly, after loading of the anion exchange column, free [^3H]glycerophosphorylinositol was removed by washing with 5 mM disodium tetraborate in 60 mM sodium formate. Total [^3H]inositol phosphates were then eluted using 100 mM formic acid in 1.0 M ammonium formate as described previously [Benya, R. V. et al. Mol. Pharmacol. 42:1058 (1992); and Wang, L-H. et al. Biochem. J. 286:641 (1992)].

GRP Receptor = target: T2, GRP Receptor (Rattus norvegicus, UniProt P52500); assay: Amylase release from rat pancreatic acini; format: cell-based
T2 construct: from tissue; host or cells: dispersed pancreatic acini

[1] = target: T3, GRP receptors on rat pancreatic acini (Rattus norvegicus, UniProt P52500); assay: Binding of 125I-[Tyr4]bombesin to pancreatic acini; conditions: read-out: Ki (nM) ^123I[Tyr^4]BnBinding
T3 construct: from tissue; host or cells: dispersed pancreatic acini
Excerpt: Nonsaturable binding was < 10% of total binding in all experiments.

rat NMB receptor = target: T4, rat NMB receptor (Rattus norvegicus, UniProt P24053); assay: Binding of 125I-[D-Tyr0]NMB to NMB-R transfected BALB 3T3 cells
T4 construct: a full length NMB-preferring bombesin receptor clone generated from rat esophagus; expressed in transfected cells; host or cells: BALB 3T3 cells
T4 sequence (P24053 1-390): T1 sequence (P24053 1-390)
Protocol: Cells were passaged every 3-4 days at confluence, using 0.1% trypsin in 1 mM EDTA. Rat glioblastoma C-6 tumor cells were maintained similarly and were passaged weekly at confluence. Both cell lines were cultured at 37°C in a 5% CO2 atmosphere. Rat AR 42J pancreatic acinar cells were cultured in Dulbecco's modified Eagle's medium (DMEM) without antibiotics and supplemented with 10% (vol/vol) fetal calf serum. The incubation atmosphere consisted of 10% CO2-90% humidified air at 37°C.

[2] = target: T5, NMB receptors on C-6 cells (Rattus norvegicus, UniProt P24053); assay: Binding of 125I-[D-Tyr0]NMB to C-6 glioblastoma cells; conditions: NMB Receptor, Ki by method of Cheng, read-out: Ki(nM) ^123I-NMB Binding
T5 construct: endogenous in cells; host or cells: rat glioblastoma C-6 cells
Protocol: Binding studies using rat glioblastoma C-6 or NMB-R transfected cells were performed as described previously [Benya, R. V. et al. Mol. Pharmacol. 42:1058 (1992); and Wang, L-H. et al. Biochem. J. 286:641 (1992)] by suspending disaggregated cells in binding buffer, which was composed of standing buffer ([…], 7.7 mM KCl, 1.0 mM EGTA, 0.02% soybean trypsin inhibitor) additionally containing 50 mM HEPES, 1 mM MgCl2, 1.5 mM CaCl2, 2.2 mM KH2PO4, 0.015% glutamine, and 0.2% BSA (w\v) (pH 7.4). Incubations contained 75 pM ^125I-[D-Tyr^0]NMB and 15 x 10^6 C-6 cells/ml or 2 x 10^6 NMB-R transfected cells/ml, for 60 min at 22°C. Nonsaturable binding of ^125I-[D-Tyr^0]NMB was te amount of radioactivity associated with C-6 cells or NMB-R transfected cells when the incubation mixture contained […]. Nonsaturable binding was < 15% of total binding in all experiments; all values are reported herein as saturable binding (i.e., total minus nonsaturable binding).

mu opioid receptors = target: T6, mu opioid receptors (Rattus norvegicus, UniProt P33535); assay: mu opioid membrane assay ([3H]DAGO, rat forebrain membranes); format: binding; conditions: for inhibition of binding to mu opioid receptors: rat forebrain membranes, concentrations up to 10 µM
T6 construct: rat forebrain (TRH, mu and delta opioid membrane assays); from tissue; host or cells: rat forebrain membranes

[3] = target: T7, somatostatin receptors on AR 42J cells (Rattus norvegicus, UniProt P30680); assay: Somatostatin membrane receptor assay (AR 42J cell membranes); format: binding; conditions: for inhibition of binding of ^125I-[Tyr^11]SS-14 to somatostatin receptors: AR 42J cells, concentrations up to 10 µM
T7 construct: endogenous in cells; host or cells: rat AR 42J pancreatic acinar cells (membranes)

[4] = target: T8, GRP receptors on AR 42J cell membranes (Rattus norvegicus, UniProt P52500); assay: GRP membrane receptor assay (AR 42J cell membranes); format: binding; conditions: method of Cheng, unit inferred, read-out: affinity, ^125I-[Tyr^4]Bn
T8 construct: endogenous in cells; host or cells: rat AR 42J pancreatic acinar cells (membranes)

[5] = target: T9, NMB receptors on rat olfactory bulb membranes (Rattus norvegicus, UniProt P24053); assay: NMB membrane receptor assay (rat olfactory bulb membranes); format: binding; conditions: Rat Olfactory bulb membranes; method of Cheng; unit inferred; read-out: affinity, ^125I-NMB
T9 construct: Membranes were prepared from rat olfactory bulb (NMB membrane receptor assay); from tissue; host or cells: rat olfactory bulb membranes
T9 sequence (P24053 1-390): T1 sequence (P24053 1-390)

[6] = target: T10, NMB receptors on C-6 glioblastoma cells (Rattus norvegicus, UniProt P24053); assay: NMB-stimulated [3H]IP in C-6 glioblastoma cells; format: cell-based; conditions: C-6 glioblastoma cells; agonist without analog; basal 7.2±1.0
T10 construct: endogenous in cells; host or cells: rat glioblastoma C-6 cells
T10 sequence (P24053 1-390): T1 sequence (P24053 1-390)
Protocol: as §1, with “for 60 min at 37°C with agonists at various concentrations or with 3 nM NMB (a half-maximal effective concentration) and possible antagonists at different concentrations.” left out

[7] = NMB Receptor, Transfected Cells, read-out: IC50 (nM) NMB-stimulated [^3H]IP
[8] = NMB Receptor, Transfected Cells, Ki by method of Cheng, read-out: Ki (nM) ^123I-NMB Binding

T6 sequence (P33535 whole entry): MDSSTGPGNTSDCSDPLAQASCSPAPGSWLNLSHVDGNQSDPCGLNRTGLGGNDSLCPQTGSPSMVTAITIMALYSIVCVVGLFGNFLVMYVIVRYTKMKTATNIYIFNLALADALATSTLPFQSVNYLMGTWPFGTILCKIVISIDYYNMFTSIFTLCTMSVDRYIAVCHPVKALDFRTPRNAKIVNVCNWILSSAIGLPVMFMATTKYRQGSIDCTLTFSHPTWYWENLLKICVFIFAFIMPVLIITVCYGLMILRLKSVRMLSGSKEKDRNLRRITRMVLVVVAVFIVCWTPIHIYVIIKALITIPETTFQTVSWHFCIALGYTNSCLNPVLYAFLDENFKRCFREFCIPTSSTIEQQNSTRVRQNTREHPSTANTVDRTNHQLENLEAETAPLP
T7 sequence (P30680 whole entry): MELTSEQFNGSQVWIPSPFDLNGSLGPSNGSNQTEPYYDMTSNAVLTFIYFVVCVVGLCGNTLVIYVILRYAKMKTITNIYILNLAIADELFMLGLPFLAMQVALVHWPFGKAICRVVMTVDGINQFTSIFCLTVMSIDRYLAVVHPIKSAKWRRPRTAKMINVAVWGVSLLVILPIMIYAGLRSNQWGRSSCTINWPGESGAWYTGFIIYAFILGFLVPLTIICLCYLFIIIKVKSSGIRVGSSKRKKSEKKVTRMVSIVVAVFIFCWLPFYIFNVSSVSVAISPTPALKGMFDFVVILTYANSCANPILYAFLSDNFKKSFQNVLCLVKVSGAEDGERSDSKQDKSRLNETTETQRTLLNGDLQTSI
T2 sequence (P52500 whole entry): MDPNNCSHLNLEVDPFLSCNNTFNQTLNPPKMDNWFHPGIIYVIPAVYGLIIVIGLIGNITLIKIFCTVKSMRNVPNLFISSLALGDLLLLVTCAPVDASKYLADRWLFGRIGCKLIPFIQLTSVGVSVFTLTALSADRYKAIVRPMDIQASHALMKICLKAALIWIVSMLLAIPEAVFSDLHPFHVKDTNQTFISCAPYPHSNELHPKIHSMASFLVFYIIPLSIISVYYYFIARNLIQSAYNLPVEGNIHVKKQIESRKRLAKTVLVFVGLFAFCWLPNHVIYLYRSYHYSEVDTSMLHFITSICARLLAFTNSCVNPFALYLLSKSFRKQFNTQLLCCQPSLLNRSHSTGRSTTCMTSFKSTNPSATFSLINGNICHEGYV
T3 sequence (P52500 whole entry): as above
T8 sequence (P52500 whole entry): as above

IC50 (NMB Receptor; [7]): 2880 ± 188 nM | IC50 (NMB Receptor; NMB-R transfected cells, summary of Table 1, read-out: IC50 of NMB-stimulated increases in [^3H]IP): 3000 to 6600 nM | NMB-R Transfected Cells [^3H]IP Alone (10 µ M) (NMB Receptor; analog 10 µM alone, no-additive control 13 ± 3): 11 ± 1 dpm x 10^3 | NMB-R Transfected Cells [^3H]IP Plus NMB (3 nM) (NMB Receptor; analog 10 µM plus NMB 3 nM, NMB without analog 186 ± 58): 65 ± 15 dpm x 10^3 | IC50 (GRP Receptor): > 10000 nM | Rat Pancreatic Acini Amylase Release Alone (10µM) (GRP Receptor; analog 10 µM alone, no-additive control 4 ± 1): 3 ± 1 % total | Rat Pancreatic Acini Amylase Release Plus Bn(0.3 nM) (GRP Receptor; analog 10 µM plus Bn 0.3 nM, Bn without analog 15 ± 1): 15 ± 1 % total | Ki [1]: > 10000 nM | Ki (rat NMB receptor; [8]): 697 ± 64 nM | Ki (rat NMB receptor; NMB-R transfected cells, summary of Table 1, read-out: K1): 700 to 800 nM | fold by which cyclo SS-octa was more potent than the analog (rat NMB receptor; inhibition of ^125I-[Tyr^0]NMB binding to NMB-R transfected cells): 4 fold | Ki [2]: 997 ± 76 nM
SMILES: NCCCC[C@@H]1NC(=O)[C@@H](Cc2c[nH]c3ccccc23)NC(=O)[C@H](Cc2ccc(O)cc2)NC(=O)[C@@H](NC(=O)[C@H](N)Cc2ccc3ccccc3c2)CSSC[C@@H](C(=O)N[C@@H](Cc2ccc3ccccc3c2)C(N)=O)NC(=O)[C@H](Cc2ccc3ccccc3c2)NC1=O [Analog #3, [Nal^6]-cyclo SS-octa] (H-[d2Nal]CY[dW]K[2Nal]C[2Nal]-NH2; disulfide 2-7)

SMILES: CC(C)[C@@H]1NC(=O)[C@H](CCCCN)NC(=O)[C@@H](Cc2c[nH]c3ccccc23)NC(=O)[C@H](Cc2ccc(O)cc2)NC(=O)[C@@H](NC(=O)[C@H](N)Cc2ccc3ccccc3c2)CSSC[C@@H](C(=O)N[C@H](C(N)=O)[C@@H](C)O)NC1=O [Analog #5, [Thr^8]-cyclo-SS-octa]
IC50 (NMB Receptor; [7]): > 10000 nM | effect on NMB-stimulated increase in [^3H]IP (NMB Receptor; NMB-R transfected cells, 3 nM NMB, peptide 10 µM): no activity | Ki (mu opioid receptors; Rat Forebrain membranes, method of Cheng, unit inferred, read-out: affinity, [^3H]DAGO): 0.002 ± 0.0014 µM | IC50 (GRP Receptor): > 10000 nM | Ki [1]: > 10000 nM | Ki ([3]; AR 42J Cell Membranes, method of Cheng, unit inferred, read-out: affinity, ^125I-[Tyr^11]SS-14): 0.00029 ± 3e-05 µM | Ki [4]: 3.9 ± 1.2 µM | Ki (rat NMB receptor; K1, NMB-R transfected cells, summary of Table 1): 14000 to 19000 nM | Ki (rat NMB receptor; [8]): 14800 ± 2650 nM | Ki [5]: 0.8 ± 0.2 µM | Ki [2]: 3790 ± 1080 nM

SMILES: CSCC[C@H](NC(=O)[C@H](CC(C)C)NC(=O)[C@H](Cc1c[nH]cn1)NC(=O)CNC(=O)[C@@H](NC(=O)[C@H](C)NC(=O)[C@H](Cc1c[nH]c2ccccc12)NC(=O)[C@H](Cc1c[nH]cn1)NC(=O)[C@H](CC(N)=O)NC(=O)CNC(=O)[C@H](CCCNC(=N)N)NC(=O)[C@@H]1CCCN1C(=O)[C@H](Cc1ccc(O)cc1)NC(=O)[C@H](CCSC)NC(=O)[C@H](CCCCN)NC(=O)[C@@H](NC(=O)[C@H](CC(C)C)NC(=O)[C@@H](NC(=O)[C@@H](NC(=O)CNC(=O)CNC(=O)CNC(=O)[C@H](C)NC(=O)[C@@H]1CCCN1C(=O)[C@H](CC(C)C)NC(=O)[C@@H]1CCCN1C(=O)[C@@H](N)C(C)C)[C@@H](C)O)C(C)C)[C@@H](C)O)C(C)C)C(N)=O [GRP, gastrin-releasing peptide]
inhibition of binding to mu opioid receptors (mu opioid receptors): Neither NMB nor GRP at concentrations up to 10 µ M inhibited binding | inhibition of binding of ^125I-[Tyr^11]SS-14 to somatostatin receptors [3]: Neither NMB nor GRP at concentrations up to 10 µ M inhibited binding

SMILES: CSCC[C@H](NC(=O)[C@H](Cc1ccccc1)NC(=O)[C@H](Cc1c[nH]cn1)NC(=O)CNC(=O)[C@@H](NC(=O)[C@H](C)NC(=O)[C@H](Cc1c[nH]c2ccccc12)NC(=O)[C@H](CC(C)C)NC(=O)[C@H](CC(N)=O)NC(=O)CN)[C@@H](C)O)C(N)=O [NMB, neuromedin B]
increase in [^3H]IP caused by 3 nM NMB (NMB Receptor; NMB-R transfected cells): 14 fold | [^3H]IP, NMB (10 nM) Alone [6]: 21.0 ± 1.8 dpm x 10^3 | inhibition of binding to mu opioid receptors (mu opioid receptors): Neither NMB nor GRP at concentrations up to 10 µ M inhibited binding | inhibition of binding of ^125I-[Tyr^11]SS-14 to somatostatin receptors [3]: Neither NMB nor GRP at concentrations up to 10 µ M inhibited binding
